Test results as given in patent US11813340B2, “PSMA targeted radiohalogenated urea-polyaminocarboxylates for cancer radiotherapy” (The Johns Hopkins University, priority 2018, dated 2023).
Entries after “also recorded” stand apart in the source; their conditions may differ.

Legend:
PSMA− PC3-flu = assay: Efficacy in subcutaneous (SC) PSMA− PC3-flu model; format: in vivo, NOD/SCID/IL-2rγ−/− (NSG) mice; conditions: single intravenous injection of different doses; FIG. 3A
Experimental: (§1) Two murine models of human PC were generated, a subcutaneous (SC) model of PSMA+PC3-PIP and PSMA-PC3-flu cells and a metastatic model of PSMA+ PC3ML/PSMA/fLuc in NOD/SCID/IL-2rγ−/− (NSG) mice. Single intravenous injection of different doses (FIG. 3) was given to each animal and the tumor progression was monitored by measuring the SC tumor volume or by performing bioluminescence imaging for the metastatic model.

[1] = tested on: PSMA + PC3-PIP and PSMA-PC3-flu flank xenografts; conditions: previously shown, Mease et al., 2018; cited from earlier work
PSMA+ PC3-PIP = assay: Efficacy in subcutaneous (SC) PSMA+ PC3-PIP model; format: in vivo, NOD/SCID/IL-2rγ−/− (NSG) mice; conditions: single intravenous injection of different doses; FIG. 3A
Experimental: as §1

CD-1 mice = assay: Long-term toxicity in healthy immunocompetent mice; format: in vivo; conditions: 1.48 MBq, 0.74 MBq, 0.244 MBq; up to 4 months after treatment
[2] = tested on: PSMA + PC3-PIP and PSMA-PC3-flu flank xenografts; assay: Biodistribution of At-211 labeled PSMA inhibitors with and without cold blocking agent (Tables 6-8); format: in vivo, athymic mice
Experimental: Organs were harvested 1, 4, and 24 h post-injection (n=5 per time point).

[3] = tested on: PSMA+PC3-PIP and PSMA-PC3-flu flank xenografts; assay: Biodistribution of [125I/211At]2 and 3 with and without co-injection of DCIBzL (Example 6); format: in vivo, athymic mice
Excerpt: Final compounds were purified by HPLC.

[4] = 21-24 Hour (footnote b), + 0.25 nmole YC-I-27
[5] = 21-24 Hour (footnote b), no blocker

O=C([O-])CN1CCN(CC(=O)[O-])CCN(CC(=O)NCCCCC(=O)N(CCCC[C@H](NC(=O)N[C@@H](CCC(=O)O)C(=O)O)C(=O)O)Cc2ccc([211At])cc2)CCN(CC(=O)[O-])CC1.[Lu+3] [[^211At]VK-02-90-Lu]
effect on PSMA− PC3-flu SC model (PSMA− PC3-flu): no effect | renal clearance [1]: rapid renal clearance | retention in PSMA+tumors [1]: persistent retention | response in PSMA+ PC3-PIP SC model (SC tumor volume) (PSMA+ PC3-PIP): dose-dependent response; also recorded: dose-dependent efficacy | treatment-related toxicity (overall health status and urinalysis) (CD-1 mice): No CD-1 animals showed treatment-related toxicity | Biodistribution, Blood ([2]; 1 Hour, 0.5 nmole YC-I-27): 0.5 ± 0.1 % injected dose/g | Biodistribution, Flu tumor ([2]; 1 Hour, 0.5 nmole YC-I-27): 0.4 ± 0.1 % injected dose/g | Biodistribution, PIP tumor ([2]; 1 Hour, 0.5 nmole YC-I-27): 25.4 ± 4.4 % injected dose/g | Biodistribution, Spleen ([2]; 1 Hour, 0.5 nmole YC-I-27): 0.3 ± 0.4 % injected dose/g | Biodistribution, Stomach ([2]; 1 Hour, 0.5 nmole YC-I-27): 0.4 ± 0.2 % injected dose/g | Biodistribution, kidney ([2]; 1 Hour, 0.5 nmole YC-I-27): 2.2 ± 0.6 % injected dose/g | Biodistribution, lacrimal gland ([2]; 1 Hour, 0.5 nmole YC-I-27): 0 % injected dose/g | Biodistribution, salivary gland ([2]; 1 Hour, 0.5 nmole YC-I-27): 0.4 ± 0.15 % injected dose/g | Biodistribution, Blood ([2]; 1 Hour, + 0.25 nmole YC-I-27): 0.6 ± 0.04 % injected dose/g | Biodistribution, Flu tumor ([2]; 1 Hour, + 0.25 nmole YC-I-27): 0.4 ± 0.1 % injected dose/g | Biodistribution, PIP tumor ([2]; 1 Hour, + 0.25 nmole YC-I-27): 34.2 ± 7.8 % injected dose/g | Biodistribution, Spleen ([2]; 1 Hour, + 0.25 nmole YC-I-27): 0.5 ± 0.4 % injected dose/g | Biodistribution, Stomach ([2]; 1 Hour, + 0.25 nmole YC-I-27): 0.4 ± 0.2 % injected dose/g | Biodistribution, kidney ([2]; 1 Hour, + 0.25 nmole YC-I-27): 5.0 ± 1.6 % injected dose/g | Biodistribution, lacrimal gland ([2]; 1 Hour, + 0.25 nmole YC-I-27): 0.1 ± 0.4 % injected dose/g | Biodistribution, salivary gland ([2]; 1 Hour, + 0.25 nmole YC-I-27): 0.4 ± 0.15 % injected dose/g | Biodistribution, Blood ([2]; 1 Hour, no blocker): 0.8 ± 0.2 % injected dose/g | Biodistribution, Flu tumor ([2]; 1 Hour, no blocker): 0.4 ± 0.2 % injected dose/g | Biodistribution, PIP tumor ([2]; 1 Hour, no blocker): 30.6 ± 4.8 % injected dose/g | Biodistribution, Spleen ([2]; 1 Hour, no blocker): 2.5 ± 0.9 % injected dose/g | Biodistribution, Stomach ([2]; 1 Hour, no blocker): 0.4 ± 0.1 % injected dose/g | Biodistribution, kidney ([2]; 1 Hour, no blocker): 90 ± 43 % injected dose/g | Biodistribution, lacrimal gland ([2]; 1 Hour, no blocker): 0.8 ± 0.9 % injected dose/g | Biodistribution, salivary gland ([2]; 1 Hour, no blocker): 0.5 ± 0.2 % injected dose/g | Biodistribution, Blood ([2]; 4 H, 0.5 nmole YC-I-27): 0.2 ± 0.1 % injected dose/g | Biodistribution, Flu tumor ([2]; 4 H, 0.5 nmole YC-I-27): 0.1 ± 0.04 % injected dose/g | Biodistribution, PIP tumor ([2]; 4 H, 0.5 nmole YC-I-27): 18.7 ± 5.4 % injected dose/g | Biodistribution, Spleen ([2]; 4 H, 0.5 nmole YC-I-27): 0.8 ± 0.5 % injected dose/g | Biodistribution, Stomach ([2]; 4 H, 0.5 nmole YC-I-27): 0.4 ± 0.05 % injected dose/g | Biodistribution, kidney ([2]; 4 H, 0.5 nmole YC-I-27): 0.7 ± 0.1 % injected dose/g | Biodistribution, lacrimal gland ([2]; 4 H, 0.5 nmole YC-I-27): 0 % injected dose/g | Biodistribution, salivary gland ([2]; 4 H, 0.5 nmole YC-I-27): 0.3 ± 0.2 % injected dose/g | Biodistribution, Blood ([2]; 4 H, + 0.25 nmole YC-I-27): 0.2 ± 0.1 % injected dose/g | Biodistribution, Flu tumor ([2]; 4 H, + 0.25 nmole YC-I-27): 0.1 ± 0.2 % injected dose/g | Biodistribution, PIP tumor ([2]; 4 H, + 0.25 nmole YC-I-27): 27.8 ± 8.7 % injected dose/g | Biodistribution, Spleen ([2]; 4 H, + 0.25 nmole YC-I-27): 0.1 ± 0.5 % injected dose/g | Biodistribution, Stomach ([2]; 4 H, + 0.25 nmole YC-I-27): 0.5 ± 0.3 % injected dose/g | Biodistribution, kidney ([2]; 4 H, + 0.25 nmole YC-I-27): 1.4 ± 0.3 % injected dose/g | Biodistribution, lacrimal gland ([2]; 4 H, + 0.25 nmole YC-I-27): 0.4 ± 0.4 % injected dose/g | Biodistribution, salivary gland ([2]; 4 H, + 0.25 nmole YC-I-27): 0.2 ± 0.1 % injected dose/g | Biodistribution, Blood ([2]; 4 H, no blocker): 0.1 ± 0.03 % injected dose/g | Biodistribution, Flu tumor ([2]; 4 H, no blocker): 0.1 ± 0.1 % injected dose/g | Biodistribution, Spleen ([2]; 4 H, no blocker): 0 % injected dose/g | Biodistribution, Stomach ([2]; 4 H, no blocker): 0.3 ± 0.2 % injected dose/g | Biodistribution, kidney ([2]; 4 H, no blocker): 2.1 ± 0.6 % injected dose/g | Biodistribution, lacrimal gland ([2]; 4 H, no blocker): 0.3 ± 1.1 % injected dose/g | Biodistribution, salivary gland ([2]; 4 H, no blocker): 0.2 ± 0.1 % injected dose/g | Biodistribution, Blood [2, 4]: 0.3 ± 1.0 % injected dose/g | Biodistribution, Flu tumor [2, 4]: 0.04 ± 0.2 % injected dose/g | Biodistribution, PIP tumor [2, 4]: 15.3 ± 8.0 % injected dose/g | Biodistribution, Spleen [2, 4]: 0 % injected dose/g | Biodistribution, Stomach [2, 4]: 0.3 ± 0.4 % injected dose/g | Biodistribution, kidney [2, 4]: 0.3 ± 0.4 % injected dose/g | Biodistribution, lacrimal gland [2, 4]: 0 % injected dose/g | Biodistribution, salivary gland [2, 4]: 0 % injected dose/g | Biodistribution, Blood [2, 5]: 0 % injected dose/g | Biodistribution, Flu tumor [2, 5]: 0 % injected dose/g | Biodistribution, PIP tumor [2, 5]: 9.5 ± 1.0 % injected dose/g | Biodistribution, Spleen [2, 5]: 0 % injected dose/g | Biodistribution, Stomach [2, 5]: 0 % injected dose/g | Biodistribution, kidney [2, 5]: 0.02 ± 0.2 % injected dose/g | Biodistribution, lacrimal gland [2, 5]: 0 % injected dose/g | Biodistribution, salivary gland [2, 5]: 0 % injected dose/g | Biodistribution, Blood ([2]; 21-24 Hour, 0.5 nmole YC-I-27): 0.03 ± 0.3 % injected dose/g | Biodistribution, Flu tumor ([2]; 21-24 Hour, 0.5 nmole YC-I-27): 0.2 ± 0.3 % injected dose/g | Biodistribution, PIP tumor ([2]; 21-24 Hour, 0.5 nmole YC-I-27): 17.5 ± 7.9 % injected dose/g | Biodistribution, Spleen ([2]; 21-24 Hour, 0.5 nmole YC-I-27): 2.5 ± 4.3 % injected dose/g | Biodistribution, Stomach ([2]; 21-24 Hour, 0.5 nmole YC-I-27): 0.4 ± 0.7 % injected dose/g | Biodistribution, kidney ([2]; 21-24 Hour, 0.5 nmole YC-I-27): 0.4 ± 0.5 % injected dose/g | Biodistribution, lacrimal gland ([2]; 21-24 Hour, 0.5 nmole YC-I-27): 0 % injected dose/g | Biodistribution, salivary gland ([2]; 21-24 Hour, 0.5 nmole YC-I-27): 0 % injected dose/g | kidney and stomach uptake ([2]; compared to other At-211 labeled PSMA inhibitors): lower kidney and stomach uptake | Stomach uptake ([3]; @ 1 h): 0.4±0.2 % ID/g | retention, K ([3]; @1 h, co-injection of DCIBzL): 2.2±0.6 % ID/g | retention, LG ([3]; @1 h, co-injection of DCIBzL): below detection | retention, SG ([3]; @1 h, co-injection of DCIBzL): 0.4±0.15 % ID/g | Stomach uptake ([3]; @ 4 h): 0.4±0.05 % ID/g | Stomach uptake ([3]; @ 24 h): 0.4±0.7 % ID/g | ^211At uptake in PSMA+ PC3-PIP xenografts ([3]; combined with DCIBzL): 25.4±4.4 % ID/g | deastatination in vivo ([3]; mouse, in vivo, listed as [^211At]3): negligible deastatination; also recorded: no evidence of deastatination in vivo
